# Target: T1, recombinant murine Aurora A enzyme (Mus musculus, UniProt P97477)
# T1 construct: hexahistidine (His6) (N); made in house; host or cells: insect cells, baculovirus (Bac-to-Bac, Invitrogen)
# Test: Aurora A DELFIA Kinase Assay
# Assay type: biochemical
# Conditions: mouse Aurora A, 250 μM ATP; threshold less than or equal to 100 nM; read-out: IC50
# Source text: Recombinant mouse Aurora A with an amino-terminus hexahistidine tag (His-Aurora A) was expressed using a standard baculovirus vector and insect cell expression system (Bac-to-Bac®, Invitrogen).
# Soluble, recombinant mouse Aurora A was purified from insect cells using Ni-NTA agarose (Qiagen) as described by the manufacturer and further purified over an S75 size exclusion column (Amersham Pharmacia Biotech).
# Aurora A DELFIA® Kinase Assay
# The enzymatic reaction mixture, with and without Aurora inhibitors, was incubated for 15 minutes at room temperature before termination with 100 μL of stop buffer (1% BSA, 0.05% Surfact-AMPS-20, and 100 mM EDTA). A total of 100 μL of the enzyme reaction mixture was transferred to wells of a Neutravidin-coated 96-well plate (Pierce) and incubated at room temperature for 30 minutes. The wells were washed with wash buffer (25 mM Tris, 150 mM sodium chloride, and 0.1% Tween 20) and incubated for 1 hour with 100 μL of antibody reaction mixture containing 1% BSA, 0.05% Surfact-AMPS-20, anti-phospho-PKA rabbit polyclonal antibody (1:2000, New England Biolabs), and europium labeled anti-rabbit IgG (1:2000, Perkin Elmer). The wells were washed and then the bound europium was liberated using 100 μL of Enhancement Solution (Perkin Elmer). Quantification of europium was done using a Wallac™ EnVision (Perkin Elmer).
# T1 sequence (P97477 whole entry): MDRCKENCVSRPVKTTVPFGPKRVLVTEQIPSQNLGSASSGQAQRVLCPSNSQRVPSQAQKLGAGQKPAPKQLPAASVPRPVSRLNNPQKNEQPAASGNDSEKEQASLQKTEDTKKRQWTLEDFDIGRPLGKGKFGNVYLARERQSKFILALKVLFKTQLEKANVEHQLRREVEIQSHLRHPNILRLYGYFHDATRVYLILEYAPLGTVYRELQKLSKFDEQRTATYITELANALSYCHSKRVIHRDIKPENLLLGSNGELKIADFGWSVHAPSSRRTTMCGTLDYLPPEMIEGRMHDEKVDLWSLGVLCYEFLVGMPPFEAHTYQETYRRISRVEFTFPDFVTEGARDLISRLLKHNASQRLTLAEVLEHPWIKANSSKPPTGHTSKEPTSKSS
row,IC50 [nM],Structure (SMILES)
1,≤ 100,"NC1CN(C(=O)c2ccc(Nc3ncc4c(n3)-c3ccc(Cl)cc3C(c3ccccc3C(F)(F)F)=NC4)cc2)C1 [Compound I-296, N-{4-[(3-aminoazetidin-1-yl)carbonyl]phenyl}-9-chloro-7-[2-(trifluoromethyl)phenyl]-5H-pyrimido[5,4-d][2]benzazepin-2-amine]"
2,≤ 100,"O=C(c1ccc(Nc2ncc3c(n2)-c2ccc(Cl)cc2C(c2ccccc2F)=NC3)cc1)N1CCNCC1 [Compound I-8, {4-[9-Chloro-7-(2-fluoro-phenyl)-5H-benzo[c]pyrimido[4,5-e]azepin-2-ylamino]-phenyl}-piperazin-1-yl-methanone]"
3,≤ 100,"CNC1CCN(C(=O)c2ccc(Nc3ncc4c(n3)-c3ccc(Cl)cc3C(c3ccccc3OC)=NC4)cc2)CC1 [Compound I-331, 9-chloro-7-(2-methoxyphenyl)-N-(4-{[4-(methylamino)piperidin-1-yl]carbonyl}phenyl)-5H-pyrimido[5,4-d][2]benzazepin-2-amine]"
4,≤ 100,"CN(CCN)C(=O)c1ccc(Nc2ncc3c(n2)-c2ccc(Cl)cc2C(c2c(F)cccc2F)=NC3)cc1 [Compound I-252, N-(2-aminoethyl)-4-{[9-chloro-7-(2,6-difluorophenyl)-5H-pyrimido[5,4-d][2]benzazepin-2-yl]amino}-N-methylbenzamide]"
5,≤ 100,"CN(C)CCC(=O)c1cccc(Nc2ncc3c(n2)-c2ccc(Cl)cc2C(c2c(F)cccc2F)=NC3)c1 [Compound I-359, 1-(3-{[9-chloro-7-(2,6-difluorophenyl)-5H-pyrimido[5,4-d][2]benzazepin-2-yl]amino}phenyl)-3-(dimethylamino)propan-1-one]"
6,≤ 100,"O=C(c1ccc(Nc2ncc3c(n2)-c2ccc(Cl)cc2C(c2ccccc2F)=NC3)cc1)N(CCO)CCO [Compound I-27, 4-[9-Chloro-7-(2-fluoro-phenyl)-5H-benzo[c]pyrimido[4,5-e]azepin-2-ylamino]-N,N-bis-(2-hydroxy-ethyl)-benzamide]"
7,≤ 100,"NC1CCN(C(=O)c2ccc(Nc3ncc4c(n3)-c3ccc(Cl)cc3C(c3ccccc3F)=NC4)cc2)C1 (stereo not shown) [Compound I-103, (3-Amino-pyrrolidin-1-yl)-{4-[9-chloro-7-(2-fluoro-phenyl)-5H-benzo[c]pyrimido[4,5-e]azepin-2-ylamino]-phenyl}-methanone]"
8,≤ 100,"O=C(c1ccc(Nc2ncc3c(n2)-c2ccc(Cl)cc2C(c2ccccc2F)=NC3)cc1Cl)N1CCN(CCN2CCCC2)CC1 [Compound I-213, 9-chloro-N-(3-chloro-4-{[4-(2-pyrrolidin-1-ylethyl)piperazin-1-yl]carbonyl}phenyl)-7-(2-fluorophenyl)-5H-pyrimido[5,4-d][2]benzazepin-2-amine]"
9,≤ 100,"Cc1csc(Nc2ncc3c(n2)-c2ccc(C(=O)O)cc2C(c2c(F)cccc2F)=NC3)n1 [Compound I-357, 7-(2,6-difluorophenyl)-2-[(4-methyl-1,3-thiazol-2-yl)amino]-5H-pyrimido[5,4-d][2]benzazepine-9-carboxylic acid]"
10,≤ 100,"CCCN(CCC)CCN1CCN(C(=O)c2ccc(Nc3ncc4c(n3)-c3ccc(Cl)cc3C(c3ccccc3F)=NC4)cc2)CC1 [Compound I-187, {4-[9-Chloro-7-(2-fluoro-phenyl)-5H-benzo[c]pyrimido[4,5-e]azepin-2-ylamino]-phenyl}-[4-(2-dipropylamino-ethyl)-piperazin-1-yl]-methanone]"
11,≤ 100,"COc1cccc(F)c1C1=NCc2cnc(Nc3ccc(C(=O)N(C)CCN(C)C)cc3)nc2-c2ccc(Cl)cc21 [Compound I-255, 4-{[9-chloro-7-(2-fluoro-6-methoxyphenyl)-5H-pyrimido[5,4-d][2]benzazepin-2-yl]amino}-N-[2-(dimethylamino)ethyl]-N-methylbenzamide]"
12,≤ 100,"O=C(NCCc1ccccn1)c1ccc(Nc2ncc3c(n2)-c2ccc(Cl)cc2C(c2ccccc2F)=NC3)cc1 [Compound I-161, 4-[9-Chloro-7-(2-fluoro-phenyl)-5H-benzo[c]pyrimido[4,5-e]azepin-2-ylamino]-N-(2-pyridin-2-yl-ethyl)-benzamide]"
13,≤ 100,"NCC#Cc1cccc(Nc2ncc3c(n2)-c2ccc(Cl)cc2C(c2c(F)cccc2F)=NC3)c1 [Compound I-338, N-[3-(3-aminoprop-1-yn-1-yl)phenyl]-9-chloro-7-(2,6-difluorophenyl)-5H-pyrimido[5,4-d][2]benzazepin-2-amine]"

# Second part, the molecule before the results:
row,Structure (SMILES),IC50 [nM]
1,"CNC1CCN(C(=O)c2ccc(Nc3ncc4c(n3)-c3ccc(Cl)cc3C(c3c(F)cccc3F)=NC4)cc2)C1 (stereo not shown) [Compound I-197, {4-[9-Chloro-7-(2,6-difluoro-phenyl)-5H-benzo[c]pyrimido[4,5-e]azepin-2-ylamino]-phenyl}-(3-methylamino-pyrrolidin-1-yl)-methanone]",≤ 100
2,"CN(C)C1CCN(C(=O)c2ccc(Nc3ncc4c(n3)-c3ccc(Cl)cc3C(c3c(F)cccc3F)=NC4)cc2Cl)CC1 [Compound I-313, 9-chloro-N-(3-chloro-4-{[4-(dimethylamino)piperidin-1-yl]carbonyl}phenyl)-7-(2,6-difluorophenyl)-5H-pyrimido[5,4-d][2]benzazepin-2-amine]",≤ 100
3,"O=C(c1ccc(Nc2ncc3c(n2)-c2ccc(Cl)cc2C(c2ccccc2F)=NC3)cc1)N1CCOCC1 [Compound I-26, {4-[9-Chloro-7-(2-fluoro-phenyl)-5H-benzo[c]pyrimido[4,5-e]azepin-2-ylamino]-phenyl}-morpholin-4-yl-methanone]",≤ 100
4,"O=C(c1ccc(Nc2ncc3c(n2)-c2ccc(Cl)cc2C(c2ccccc2Cl)=NC3)cc1)N1CCOCC1 [Compound I-28, {4-[9-Chloro-7-(2-chloro-phenyl)-5H-benzo[c]pyrimido[4,5-e]azepin-2-ylamino]-phenyl}-morpholin-4-yl-methanone]",≤ 100
5,"CN1CCC(N(C)C(=O)c2ccc(Nc3ncc4c(n3)-c3ccc(Cl)cc3C(c3ccccc3F)=NC4)cc2)CC1 [Compound I-128, 4-[9-Chloro-7-(2-fluoro-phenyl)-5H-benzo[c]pyrimido[4,5-e]azepin-2-ylamino]-N-methyl-N-(1-methyl-piperidin-4-yl)-benzamide]",≤ 100
6,"O=C(O)C1CN=C(c2ccc(Nc3ncc4c(n3)-c3ccc(Cl)cc3C(c3c(F)cccc3F)=NC4)cc2)N1 (stereo not shown) [Compound I-306, 2-(4-{[9-chloro-7-(2,6-difluorophenyl)-5H-pyrimido[5,4-d][2]benzazepin-2-yl]amino}phenyl)-4,5-dihydro-1H-imidazole-5-carboxylic acid]",≤ 100
7,"COc1cccc(F)c1C1=NCc2cnc(Nc3ccc(C(=O)N(C)CCN)cc3)nc2-c2ccc(Cl)cc21 [Compound I-265, N-(2-aminoethyl)-4-{[9-chloro-7-(2-fluoro-6-methoxyphenyl)-5H-pyrimido[5,4-d][2]benzazepin-2-yl]amino}-N-methylbenzamide]",≤ 100
8,COc1cccc(F)c1C1=NCc2cnc(Nc3ccc(C(=O)N4CCCC(N)C4)cc3)nc2-c2ccc(Cl)cc21 (stereo not shown) [Compound I-262],≤ 100
9,"COc1cccc(F)c1C1=NCc2cnc(Nc3cccc(C(=O)N4CCC(N(C)C)C4)c3)nc2-c2ccc(Cl)cc21 (stereo not shown) [Compound I-231, 9-chloro-N-(3-{[3-(dimethylamino)pyrrolidin-1-yl]carbonyl}phenyl)-7-(2-fluoro-6-methoxyphenyl)-5H-pyrimido[5,4-d][2]benzazepin-2-amine]",≤ 100
10,"OC1CN=C(c2ccc(Nc3ncc4c(n3)-c3ccc(Cl)cc3C(c3c(F)cccc3F)=NC4)cc2)NC1 (stereo not shown) [Compound I-285, 2-(4-{[9-chloro-7-(2,6-difluorophenyl)-5H-pyrimido[5,4-d][2]benzazepin-2-yl]amino}phenyl)-1,4,5,6-tetrahydropyrimidin-5-ol]",≤ 100
11,"NC1CCN(C(=O)c2ccc(Nc3ncc4c(n3)-c3ccc(Cl)cc3C(c3c(F)cccc3F)=NC4)cc2)CC1 [Compound I-239, N-{4-[(4-aminopiperidin-1-yl)carbonyl]phenyl}-9-chloro-7-(2,6-difluorophenyl)-5H-pyrimido[5,4-d][2]benzazepin-2-amine]",≤ 100
12,"CC1CN(C(=O)c2ccc(Nc3ncc4c(n3)-c3ccc(Cl)cc3C(c3c(F)cccc3Cl)=NC4)cc2)CC(C)N1 (stereo not shown) [Compound I-324, 9-chloro-7-(2-chloro-6-fluorophenyl)-N-{4-[(3,5-dimethylpiperazin-1-yl)carbonyl]phenyl}-5H-pyrimido[5,4-d][2]benzazepin-2-amine]",≤ 100
13,"CC(C)(N)C(=O)Nc1ccc(Nc2ncc3c(n2)-c2ccc(Cl)cc2C(c2c(F)cccc2F)=NC3)cc1 [Compound I-308, 2-amino-N-(4-{[9-chloro-7-(2,6-difluorophenyl)-5H-pyrimido[5,4-d][2]benzazepin-2-yl]amino}phenyl)-2-methylpropanamide]",≤ 100
14,"CC(C)(N)CNC(=O)c1ccc(Nc2ncc3c(n2)-c2ccc(Cl)cc2C(c2c(F)cccc2F)=NC3)cc1 [Compound I-260, N-(2-amino-2-methylpropyl)-4-{[9-chloro-7-(2,6-difluorophenyl)-5H-pyrimido[5,4-d][2]benzazepin-2-yl]amino}benzamide]",≤ 100
15,"NC1CCN(C(=O)c2ccc(Nc3ncc4c(n3)-c3ccc(Cl)cc3C(c3ccccn3)=NC4)cc2)CC1 [Compound I-298, N-{4-[(4-aminopiperidin-1-yl)carbonyl]phenyl}-9-chloro-7-pyridin-2-yl-5H-pyrimido[5,4-d][2]benzazepin-2-amine]",≤ 100
